The text below walks through data of patent publication US8912216B2, “Hetaryl-[1,8]naphthyridine derivatives” (Merck Patent GmbH, priority 2010, dated 2014).

Each structure is given as a SMILES string.

In one test the target is T1, GST-ALK5 (Homo sapiens, UniProt P36897).
T1 sequence (P36897 34-503): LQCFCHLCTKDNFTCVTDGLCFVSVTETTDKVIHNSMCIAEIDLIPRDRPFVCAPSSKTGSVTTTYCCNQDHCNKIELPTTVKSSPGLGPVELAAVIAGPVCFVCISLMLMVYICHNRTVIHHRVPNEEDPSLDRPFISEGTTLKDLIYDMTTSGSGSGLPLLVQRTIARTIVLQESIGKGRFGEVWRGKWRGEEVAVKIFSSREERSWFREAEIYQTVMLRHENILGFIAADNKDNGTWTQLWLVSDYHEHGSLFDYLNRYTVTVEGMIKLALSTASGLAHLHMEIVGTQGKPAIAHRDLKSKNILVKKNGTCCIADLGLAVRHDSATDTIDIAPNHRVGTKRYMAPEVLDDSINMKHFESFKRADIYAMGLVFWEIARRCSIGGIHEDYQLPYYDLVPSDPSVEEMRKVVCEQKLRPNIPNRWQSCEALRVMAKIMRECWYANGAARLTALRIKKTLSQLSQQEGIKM
Description: In-vitro (enzyme) kinase assay, 384-well flashplate (Example 36). It is filed as biochemical. To be noted: GST-ALK5, GST-SMAD2 substrate, 3 mM ATP, 30° C., 45 min; read-out: TβR activity (Example 36). In outline:
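Radiometric flashplate assay: 31.2 nM GST-ALK5 phosphorylating 439 nM GST-SMAD2 with 3 mM ATP plus ³³P-ATP, in HEPES/MgCl2/MnCl2/DTT/BSA buffer pH 7.4, 45 min at 30 °C, 5-10 compound concentrations. EDTA stop, filtration and washing, then radioactivity counted; IC50 derived from the curve.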

In test [1] the test system is TGF-beta-induced phosphorylation of Smad2 and Smad3 in Mv1-Lu cells. The test is described as follows: Inhibition of Smad2/3 phosphorylation in Mv1Lu cells (Example 35A). The class given is cell-based, mink Mustela vison. To be noted: Neogale vison, Mv1-Lu cells, TGF-beta 1 5 ng/ml, phospho-Smad2/3 ELISA, read-out: TβR activity (Example 35A). In outline: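 Serum-starved (16-20 h) Mv1-Lu mink lung epithelial cells were pre-incubated 1.5 h with compound dilutions (0.2% DMSO), then stimulated 1 h with 5 ng/ml TGF-beta 1. Phospho-Smad2 (Ser465/467)/Smad3 (Ser423/425) in lysates was measured by ELISA. IC50 came from dose-response fits between stimulated and unstimulated controls.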
(In general: ELISA stands for enzyme-linked immunosorbent assay.)

Consider `CCN1CCC(n2cc(-c3cncc(-c4cc(-c5cc(Cl)ccc5F)nc5ncccc45)c3)cn2)CC1` [compound 46, 2-(5-Chloro-2-fluoro-phenyl)-4-{5-[1-(1-ethyl-piperidin-4-yl)-1H-pyrazol-4-yl]-pyridin-3-yl}-[1,8]naphthyridine], for which the IC50 (at GST-ALK5; in test [1]) was under 100 nM throughout.

As to `CN1CCC(n2cc(-c3cncc(-c4cc(-c5ccccc5F)nc5ncccc45)n3)cn2)CC1` [compound 85, 2-(2-Fluoro-phenyl)-4-{6-[1-(1-methyl-piperidin-4-yl)-1H-pyrazol-4-yl]-pyrazin-2-yl}-[1,8]naphthyridine], the results for the IC50 (at GST-ALK5; in test [1]) were under 100 nM and 100 to 1000 nM, respectively.

As to `CN1CC[C@@H](n2cc(-c3cncc(-c4cc(-c5ccccc5F)nc5ncccc45)c3)cn2)C1` [compound 64, 2-(2-Fluoro-phenyl)-4-{5-[1-((R)-1-methyl-pyrrolidin-3-yl)-1H-pyrazol-4-yl]-pyridin-3-yl}-[1,8]naphthyridine], the IC50 (at GST-ALK5; in test [1]) was under 100 nM throughout.

For the compound `Fc1ccc(Cl)cc1-c1cc(-c2cncc(-c3ccc4c(c3)NCCC4)c2)c2cccnc2n1` [compound 151, 2-(5-Chloro-2-fluoro-phenyl)-4-[5-(1,2,3,4-tetrahydro-quinolin-7-yl)-pyridin-3-yl]-[1,8]naphthyridine], the IC50 was 100 to 1000 nM at GST-ALK5 and under 100 nM in test [1].

Take `COCCN1CCC(n2cc(-c3cncc(-c4cc(-c5ccccc5F)nc5ncccc45)c3)cn2)CC1` [compound 52, 2-(2-Fluoro-phenyl)-4-(5-{1-[1-(2-methoxy-ethyl)-piperidin-4-yl]-1H-pyrazol-4-yl}-pyridin-3-yl)-[1,8]naphthyridine]: the IC50 (on GST-ALK5; in test [1]) was under 100 nM throughout.

For `Fc1ccc(Cl)cc1-c1cc(-c2cncc(-c3cccnc3)c2)c2cccnc2n1` [compound 104, 4-[3,3′]Bipyridinyl-5-yl-2-(5-chloro-2-fluoro-phenyl)-[1,8]naphthyridine], the IC50 is under 100 nM on GST-ALK5 and 100 to 1000 nM in test [1].

Regarding `O=C1CCc2cc(-c3cncc(-c4cc(-c5cc(Cl)ccc5F)nc5ncccc45)c3)cnc2N1` [compound 165, 6-{5-[2-(5-Chloro-2-fluoro-phenyl)-[1,8]naphthyridin-4-yl]-pyridin-3-yl}-3,4-dihydro-1H-[1,8]naphthyridin-2-one], the IC50 (at GST-ALK5; in test [1]) was under 100 nM in each case.

`CN1CCN(c2cccc(-c3cncc(-c4cc(-c5cc(Cl)ccc5F)nc5ncccc45)c3)n2)CC1` [compound 141, 2-(5-Chloro-2-fluoro-phenyl)-4-[6-(4-methyl-piperazin-1-yl)-[2,3′]bipyridinyl-5′-yl]-[1,8]naphthyridine]: the IC50 (on GST-ALK5; in test [1]) was 100 to 1000 nM in each case.

For `Fc1ccc(Cl)cc1-c1cc(-c2ccnc(-c3ccccc3)c2)c2cccnc2n1` [compound 20, 2-(5-Chloro-2-fluoro-phenyl)-4-(2-phenyl-pyridin-4-yl)-[1,8]naphthyridine], the IC50 (on GST-ALK5; in test [1]) was over 10000 nM throughout.

Take `Cn1cc(-c2cncc(-c3cc(-c4cc(Cl)ccc4F)nc4ncccc34)c2)cn1` [compound 7, 2-(5-chloro-2-fluoro-phenyl)-4-[5-(1-methyl-1H-pyrazol-4-yl)-pyridin-3-yl]-[1,8]naphthyridine]: the IC50 on GST-ALK5 is under 100 nM; in test [1], 100 to 1000 nM.
